Assay results as given in patent publication US20260274833A1 (NiKang Therapeutics, Inc., priority 2022, published 2026).

Biological target: T1, CDK2 (Homo sapiens, UniProt P24941)
T1 construct: endogenous in cells; host or cells: OVCAR3 cells
Assay: Phospho-RB measurement in OVCAR3 cells (HTRF phospho-RB cellular kit)
Assay type: cell-based
Settings: inhibition of RB phosphorylation at S807/811 (HTRF, TR-FRET ratio 665/620), 24 h compound treatment, 0.3 to 10,000 nM
Method in brief: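 IC50 came from a four-parameter logistic fit of the DMSO-normalized TR-FRET ratio (665/620 nm). That ratio reflects RB phosphorylation at S807/811, read with an HTRF antibody pair 4 h after adding lysate at room temperature.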

IC50 | SMILES
103 nM | O=S1(=O)CC2(CC(Nc3nccc(-c4sc(C56CC(C(F)F)(C5)C6)nc4-c4cccc(NS(=O)(=O)N5CCc6ccc(C(F)(F)F)cc65)c4F)n3)C2)C1 [Example 278, N-(3-(2-(3-(difluoromethyl)bicyclo-[1.1.1]-pentan-1-yl)-5-(2-((2,2-dioxido-2-thiaspiro[3.3]heptan-6-yl)amino)-pyrimidin-4-yl)thiazol-4-yl)-2-fluorophenyl)-6-(trifluoromethyl)-indoline-1-sulfonamide]
934 nM | CC(C)(C)c1nc(-c2cccc(NS(=O)(=O)N3CCc4ccc(-c5ccccc5)cc43)c2F)c(-c2ccnc(NC3CC4(C3)CS(=O)(=O)C4)n2)s1 [Example 217, N-(3-(2-(tert-butyl)-5-(2-((2,2-dioxido-2-thiaspiro[3.3]heptan-6-yl)amino)-pyrimidin-4-yl)thiazol-4-yl)-2-fluoro-phenyl)-6-phenyl-indoline-1-sulfonamide]
1530 nM | Cn1ncc2c1CN(S(=O)(=O)Nc1cccc(-c3nc(C(C)(C)C)sc3-c3ccnc(Nc4ccc(N5CCNCC5)cc4)n3)c1F)C2 [Example 251]
73 nM | CC1(c2nc(-c3cccc(NS(=O)(=O)N4CCc5ccc(C#N)cc54)c3F)c(-c3ccnc(N[C@H]4[C@@H]5CS(=O)(=O)C[C@@H]54)n3)s2)CCOCC1 [Example 10]
277 nM | CC(C)(C)c1nc(-c2cccc(NS(=O)(=O)N3CCC4(CC4)C3)c2F)c(-c2ccnc(NC3CCN(S(C)(=O)=O)CC3)n2)s1 [Example 166, N-(3-(2-(tert-butyl)-5-(2-((1-(methylsulfonyl)-piperidin-4-yl)amino)-pyrimidin-4-yl)thiazol-4-yl)-2-fluoro-phenyl)-5-azaspiro[2.4] heptane-5-sulfonamide]
521 nM | CN(C)Cc1cccc(Nc2nccc(-c3sc(C(C)(C)C)nc3-c3cccc(NS(=O)(=O)N4CCc5ccc(C#N)cc54)c3F)n2)c1 [Example 241, N-(3-(2-(tert-butyl)-5-(2-((3-((dimethylamino)-methyl)phenyl)-amino)pyrimidin-4-yl)thiazol-4-yl)-2-fluorophenyl)-6-cyanoindoline-1-sulfonamide]
1590 nM | CC(C)(C)c1nc(-c2cccc(NS(=O)(=O)N3CCc4ccc(C(N)=O)cc43)c2F)c(-c2ccnc(NC3CCN(S(C)(=O)=O)CC3)n2)s1 [Example 168, 1-(N-(3-(2-(tert-butyl)-5-(2-((1-(methyl-sulfonyl)piperidin-4-yl)amino)pyrimidin-4-yl)thiazol-4-yl)-2-fluorophenyl)-sulfamoyl)-indoline-6-carboxamide]
735 nM | CC(C)(C)c1nc(-c2cccc(NS(=O)(=O)N3CCN(c4ccccc4)CC3)c2F)c(-c2ccnc(NC3CCN(S(C)(=O)=O)CC3)n2)s1 [Example 64, N-(3-(2-(tert-butyl)-5-(2-((1-(methylsulfonyl)-piperidin-4-yl)amino)-pyrimidin-4-yl)thiazol-4-yl)-2-fluoro-phenyl)-4-phenylpiperazine-1-sulfonamide]
4690 nM | CC(C)(C)c1nc(-c2cccc(NS(=O)(=O)N3Cc4ccnc(O)c4C3)c2F)c(-c2ccnc(NC3CCN(S(C)(=O)=O)CC3)n2)s1 [Example 239, N-(3-(2-(tert-butyl)-5-(2-((1-(methylsulfonyl)-piperidin-4-yl)amino)-pyrimidin-4-yl)thiazol-4-yl)-2-fluoro-phenyl)-4-hydroxy-1,3-dihydro-2H-pyrrolo[3,4-c] pyridine-2-sulfonamide]
336 nM | O=S1(=O)CC2(CC(Nc3nccc(-c4sc(N5C6CCC5CN(C5CC(F)(F)C5)C6)nc4-c4cccc(NS(=O)(=O)N5CCc6ccc(Cl)cc65)c4F)n3)C2)C1 [Example 51, 6-chloro-N-(3-(2-(3-(3,3-difluoro-cyclobutyl)-3,8-diazabicyclo [3.2.1]octan-8-yl)-5-(2-((2,2-dioxido-2-thiaspiro-[3.3]heptan-6-yl)amino)-pyrimidin-4-yl)thiazol-4-yl)-2-fluorophenyl)-indoline-1-sulfonamide]
320 nM | CC(C)(C)c1nc(-c2cccc(NS(=O)(=O)N3CCc4cc(C#N)ccc43)c2F)c(-c2ccnc(NC3CC4(C3)CS(=O)(=O)C4)n2)s1 [Example 195, N-(3-(2-(tert-butyl)-5-(2-((2,2-dioxido-2-thiaspiro[3.3]heptan-6-yl)amino)-pyrimidin-4-yl)thiazol-4-yl)-2-fluoro-phenyl)-5-cyanoindoline-1-sulfonamide]
86.2 nM | COc1cccc2c1CN(S(=O)(=O)Nc1cccc(-c3nc(C(C)(C)C)sc3-c3ccnc(NC4CC5(C4)CS(=O)(=O)C5)n3)c1F)C2 [Example 202, N-(3-(2-(tert-butyl)-S-(2-((2,2-dioxido-2-thiaspiro[3.3]heptan-6-yl)amino)-pyrimidin-4-yl)thiazol-4-yl)-2-fluoro-phenyl)-4-methoxyisoindoline-2-sulfonamide]
1210 nM | CN1CCN(S(=O)(=O)N2CCC(Nc3nccc(-c4sc(C(C)(C)C)nc4-c4cccc(NS(=O)(=O)N(C)C5CC5)c4F)n3)CC2)CC1 [Example 112, N-(3-(2-(tert-butyl)-5-(2-((1-((4-methylpiperazin-1-yl)sulfonyl)piperidin-4-yl)amino)pyrimidin-4-yl)thiazol-4-yl)-2-fluorophenyl)-(N-methyl-N-cyclopropylamine)-sulfonamide]
55 nM | CC(C)(C)c1nc(-c2cccc(NS(=O)(=O)N3Cc4cccc(C#N)c4C3)c2F)c(-c2ccnc(NC3CCN(S(C)(=O)=O)CC3)n2)s1 [Example 185, N-(3-(2-(tert-butyl)-5-(2-((1-(methylsulfonyl)-piperidin-4-yl)amino)-pyrimidin-4-yl)thiazol-4-yl)-2-fluoro-phenyl)-4-cyanoisoindoline-2-sulfonamide]
285 nM | O=S1(=O)CC2(CC(Nc3nccc(-c4sc(C56CC(C(F)(F)F)(C5)C6)nc4-c4cccc(NS(=O)(=O)N5CCc6ccc(Cl)cc65)c4F)n3)C2)C1 [Example 280, 6-chloro-N-(3-(5-(2-((2,2-dioxido-2-thiaspiro[3.3]heptan-6-yl)amino)-pyrimidin-4-yl)-2-(3-(trifluoromethyl)-bicyclo[1.1.1]pentan-1-yl)thiazol-4-yl)-2-fluorophenyl) indoline-1-sulfonamide]
151 nM | CC(C)(C)c1nc(-c2cccc(NS(=O)(=O)N3CCc4c(C#N)cccc43)c2F)c(-c2ccnc(NC3CCN(S(=O)(=O)N4CCNCC4)CC3)n2)s1 [Example 124, N-(3-(2-(tert-butyl)-5-(2-((1-(piperazin-1-ylsulfonyl)piperidin-4-yl)amino)-pyrimidin-4-yl)thiazol-4-yl)-2-fluoro-phenyl)-4-cyanoindoline-1-sulfonamide]
679 nM | CC1CCN(S(=O)(=O)Nc2cccc(-c3nc(C(C)(C)C)sc3-c3ccnc(NC4CCN(S(C)(=O)=O)CC4)n3)c2F)CC1 [Example 63, N-(3-(2-(tert-butyl)-5-(2-((1-(methylsulfonyl)-piperidin-4-yl)amino)-pyrimidin-4-yl)thiazol-4-yl)-2-fluoro-phenyl)-4-methylpiperidine-1-sulfonamide]
160 nM | O=S1(=O)CC2(CC(Nc3nccc(-c4sc(N5C6CCC5CN(C5CC(F)(F)C5)C6)nc4-c4cccc(NS(=O)(=O)N5Cc6cccc(C(F)F)c6C5)c4F)n3)C2)C1 [Example 52, N-(3-(2-(3-(3,3-difluorocyclobutyl)-3,8-diazabicyclo [3.2.1]octan-8-yl)-5-(2-((2,2-dioxido-2-thiaspiro[3.3]heptan-6-yl)amino)-pyrimidin-4-yl)thiazol-4-yl)-2-fluorophenyl)-4-(difluoromethyl)-isoindoline-2-sulfonamide]
314 nM | O=S1(=O)CC2(CC(Nc3nccc(-c4sc(C56CC(C5)C6)nc4-c4cccc(NS(=O)(=O)N5CCc6c5ccc(F)c6F)c4F)n3)C2)C1 [Example 45, N-(3-(2-(bicyclo [1.1.1]pentan-1-yl)-5-(2-((2,2-dioxido-2-thiaspiro[3.3]heptan-6-yl)amino)-pyrimidin-4-yl)thiazol-4-yl)-2-fluorophenyl)-4,5-difluoroindoline-1-sulfonamide]
1850 nM | CCN(C)S(=O)(=O)Nc1cccc(-c2nc(C(C)(C)C)sc2-c2ccnc(NC3CC4(C3)CS(=O)(=O)C4)n2)c1F [Example 194, N-(3-(2-(tert-butyl)-5-(2-((2,2-dioxido-2-thiaspiro[3.3]heptan-6-yl)amino)-pyrimidin-4-yl)thiazol-4-yl)-2-fluoro-phenyl)-N-methyl-N-ethylamine-sulfonamide]
291 nM | CC(C)(C)c1nc(-c2cccc(NS(=O)(=O)N3CCc4ncccc43)c2F)c(-c2ccnc(NC3CCN(S(C)(=O)=O)CC3)n2)s1 [Example 141, N-(3-(2-(tert-butyl)-5-(2-((1-(methylsulfonyl)-piperidin-4-yl)amino)-pyrimidin-4-yl)thiazol-4-yl)-2-fluoro-phenyl)-2,3-dihydro-1H-pyrrolo [3,2-b]-pyridine-1-sulfonamide]
297 nM | CC(C)(C)c1nc(-c2cccc(NS(=O)(=O)N3Cc4cccc(OCCO)c4C3)c2F)c(-c2ccnc(NC3CCN(S(C)(=O)=O)CC3)n2)s1 [Example 237, N-(3-(2-(tert-butyl)-5-(2-((1-(methylsulfonyl)-piperidin-4-yl)amino)-pyrimidin-4-yl)thiazol-4-yl)-2-fluoro-phenyl)-4-(2-hydroxyethoxy)-isoindoline-2-sulfonamide]
136 nM | COc1cccc2c1CN(S(=O)(=O)Nc1cccc(-c3nc(C45CC(C4)C5)sc3-c3ccnc(NC4CC5(C4)CS(=O)(=O)C5)n3)c1F)C2 [Example 23, N-(3-(2-(bicyclo [1.1.1]pentan-1-yl)-5-(2-((2,2-dioxido-2-thiaspiro[3.3]heptan-6-yl)amino)-pyrimidin-4-yl)thiazol-4-yl)-2-fluorophenyl)-4-methoxyisoindoline-2-sulfonamide]
2430 nM | CN(C)C(=O)c1cccc2c1CN(S(=O)(=O)Nc1cccc(-c3nc(C(C)(C)C)sc3-c3ccnc(NC4CCN(S(C)(=O)=O)CC4)n3)c1F)C2 [Example 163, 2-(N-(3-(2-(tert-butyl)-5-(2-((1-(methyl-sulfonyl)piperidin-4-yl)amino)pyrimidin-4-yl)thiazol-4-yl)-2-fluorophenyl)-sulfamoyl)-N, N-dimethyliso-indoline-4-carboxamide]
